{"source": "ChEMBL document CHEMBL4433260", "about": "“Oxadiazole scaffolds in anti-tuberculosis drug discovery” (Bioorg Med Chem Lett, 2019)", "key": {"[1]": {"test_system": "Mycobacterium tuberculosis", "experiment": "Antimycobacterial activity against Mycobacterium tuberculosis H37Rv", "type": "functional"}, "[2]": {"experiment": "Inhibition of Mycobacterium tuberculosis H37Rv shikimate kinase using shikimic acid as substrate preincubated for 15 mins followed by substrate addition in presence of ATP by LC/MS analysis"}, "[3]": {"test_system": "Mycobacterium tuberculosis", "experiment": "Antimycobacterial activity against Mycobacterium tuberculosis H37Rv at 100 ug/ml by alamar blue assay relative to control", "type": "functional"}, "[4]": {"test_system": "Mycobacterium tuberculosis", "experiment": "Antimycobacterial activity against Mycobacterium tuberculosis H37Rv by alamar blue assay", "type": "functional"}, "[5]": {"test_system": "Mycobacterium tuberculosis", "experiment": "Antimycobacterial activity against Mycobacterium tuberculosis H37Rv at 250 ug/ml measured after 4 weeks by Lowensteine-Jensen method relative to control", "type": "functional", "details": "672 h"}, "[6]": {"test_system": "Mycobacterium tuberculosis", "experiment": "Antimycobacterial activity against Mycobacterium tuberculosis Erdman", "type": "functional"}, "[7]": {"test_system": "Mycolicibacterium smegmatis", "experiment": "Antimycobacterial activity against Mycobacterium smegmatis str. MC2 155", "type": "functional"}, "[8]": {"test_system": "Mycobacterium tuberculosis", "experiment": "Antimycobacterial activity against replicating Mycobacterium tuberculosis H37Rv at 8 ug/ml relative to control", "type": "functional"}, "[9]": {"test_system": "Mycobacterium tuberculosis", "experiment": "Antimycobacterial activity against non-replicating Mycobacterium tuberculosis H37Rv at 1.6 ug/ml relative to control", "type": "functional"}, "[10]": {"test_system": "Mycobacterium tuberculosis", "experiment": "Antimycobacterial activity against Mycobacterium tuberculosis H37Rv incubated for 5 days by alamar blue assay", "type": "functional", "details": "120 h"}, "[11]": {"test_system": "Mycobacterium tuberculosis", "experiment": "Antimycobacterial activity against Mycobacterium tuberculosis H37Rv measured after 28 days by Lowensteine-Jensen method", "type": "functional", "details": "672 h"}, "[12]": {"test_system": "Mycobacterium tuberculosis", "experiment": "Antitubercular activity against dormant stage of Mycobacterium tuberculosis H37Ra", "type": "functional"}}, "data": [{"smiles": "CO[C@H]1O[C@H](Cc2nnc(C)o2)[C@@H](OCc2ccccc2)[C@H](OCc2ccccc2)[C@H]1OCc1ccccc1", "values": [{"measurement": "MIC", "setting": "[1]", "value": 60, "unit": "µM"}]}, {"smiles": "O=C(/C=C/c1ccccc1)Nc1nnc(C2CCCc3ccccc32)o1", "note": "(stereo not given)", "values": [{"measurement": "MIC", "setting": "[1]", "value": "< 1", "unit": "µg/mL"}, {"measurement": "IC50", "setting": "[2]", "value": 3.79, "unit": "µM"}]}, {"smiles": "COc1ccc(-c2nnc(-c3cc4cc(C)ccc4n4nnnc34)o2)cc1", "values": [{"measurement": "inhibition at 100 µg/mL", "setting": "[3]", "value": "> 90", "unit": "%"}]}, {"smiles": "Clc1ccc(-c2nnc(/N=C/c3ccco3)o2)cc1", "values": [{"measurement": "MIC", "setting": "[4]", "value": 3.12, "unit": "µg/mL"}]}, {"smiles": "Cc1ccc(-c2nnc(-c3c(C)nn(-c4ccccc4)c3Oc3cccc(F)c3)o2)cc1", "values": [{"measurement": "inhibition at 250 µg/mL", "setting": "[5]", "value": "> 90", "unit": "%"}]}, {"smiles": "O=C(Nc1nnc(-c2ccc(F)cc2)o1)c1ccc(Cl)cc1", "values": [{"measurement": "MIC", "setting": "[6]", "value": 1.6, "unit": "µg/mL"}, {"measurement": "MIC", "setting": "[7]", "value": 0.4, "unit": "µg/mL"}, {"measurement": "inhibition at 8 µg/mL", "setting": "[8]", "value": "> 90", "unit": "%"}, {"measurement": "inhibition at 1.6 µg/mL", "setting": "[9]", "value": "> 90", "unit": "%"}]}, {"smiles": "Cn1c(-c2cccc(Cl)c2Cl)nc2cc(-c3nc(-c4ccccc4Cl)no3)ccc21", "values": [{"measurement": "MIC", "setting": "[10]", "value": 1.6, "unit": "µg/mL"}]}, {"smiles": "Cc1ccc2nc(Cl)c(CN(c3ccccc3)c3nnc(-c4cccnc4)o3)cc2c1", "values": [{"measurement": "MIC", "setting": "[11]", "value": "60 to 200", "unit": "µM"}]}, {"smiles": "Cc1nn(-c2ccccc2)c(Oc2cccc(C(F)(F)F)c2)c1-c1nnc(-c2ccc(Br)cc2)o1", "values": [{"measurement": "inhibition at 250 µg/mL", "setting": "[5]", "value": "> 90", "unit": "%"}]}, {"smiles": "O=C(Nc1nnc(-c2ccccc2Cl)o1)c1cccc(Oc2ccccc2)c1", "values": [{"measurement": "MIC", "setting": "[1]", "value": "< 1", "unit": "µg/mL"}, {"measurement": "IC50", "setting": "[2]", "value": 3.43, "unit": "µM"}]}, {"smiles": "Cn1c(-c2cccc(Cl)c2F)nc2cc(-c3nc(Cc4cccc(Cl)c4)no3)ccc21", "values": [{"measurement": "MIC", "setting": "[10]", "value": 1.6, "unit": "µg/mL"}]}, {"smiles": "Clc1ccc2nc(Cl)c(CN(c3ccccc3)c3nnc(-c4cccnc4)o3)cc2c1", "values": [{"measurement": "MIC", "setting": "[11]", "value": "60 to 200", "unit": "µM"}]}, {"smiles": "CC1(C)Cc2c(C#CCO)c(NC(=O)C(C)(C)C)cc(-c3nnc(-c4ccc(C(F)(F)F)cc4)o3)c2O1", "values": [{"measurement": "IC90", "setting": "[12]", "value": 5.7, "unit": "µM"}]}, {"smiles": "Cc1nn(-c2ccccc2)c(Oc2ccc(F)cc2)c1-c1nnc(-c2ccc(Br)cc2)o1", "values": [{"measurement": "inhibition at 250 µg/mL", "setting": "[5]", "value": "> 90", "unit": "%"}]}, {"smiles": "Clc1ccc2nc(Cl)c(CN(c3ccccc3)c3nnc(-c4ccncc4)o3)cc2c1", "values": [{"measurement": "MIC", "setting": "[11]", "value": "60 to 200", "unit": "µM"}]}, {"smiles": "Cc1ccc(-c2nnc(-c3c(C)nn(-c4ccccc4)c3Oc3ccc(F)cc3)o2)cc1", "values": [{"measurement": "inhibition at 250 µg/mL", "setting": "[5]", "value": "> 90", "unit": "%"}]}, {"smiles": "Cn1c(-c2cccc(Cl)c2F)nc2cc(-c3nc(-c4ccc(Cl)cc4)no3)ccc21", "values": [{"measurement": "MIC", "setting": "[10]", "value": 1.6, "unit": "µg/mL"}]}, {"smiles": "Cn1c(-c2cccc(Cl)c2Cl)nc2cc(-c3nc(-c4ccc(Cl)cc4)no3)ccc21", "values": [{"measurement": "MIC", "setting": "[10]", "value": 1.6, "unit": "µg/mL"}]}, {"smiles": "Clc1nc2ccccc2cc1CN(c1ccccc1)c1nnc(-c2ccncc2)o1", "values": [{"measurement": "MIC", "setting": "[11]", "value": "60 to 200", "unit": "µM"}]}, {"smiles": "Cc1ccc2c(c1)cc(-c1nnc(-c3ccncc3)o1)c1nnnn12", "values": [{"measurement": "inhibition at 100 µg/mL", "setting": "[3]", "value": "> 90", "unit": "%"}]}]}
